# Laboratory results taken from EP2217930B1, “MALDI MS-BASED HIGH-THROUGHPUT SCREENING METHOD FOR SUBSTANCES INHIBITING AGGREGATION OF ALZHEIMER'S AMYLOID BETA PEPTIDES” (Tallinn University of Technology, priority 2007, dated 2009).
# Target: T1, Aβ42 (Homo sapiens, UniProt P05067)
# T1 construct: Both 40 and 42 amino acid amyloid beta peptides were purchased from rPeptide; purchased rPeptide (Bogart, USA)
# Assay: automatic MALDI-TOF MS high-throughput screening assay for inhibitors of Aβ42 aggregation (detection of monomeric Aβ42, insulin B chain as internal standard)
# Type: biochemical
# Conditions: 35 selected substances tested; 5 µM Aβ42 in 20mM HEPES 0.1 M NaCl pH 7.5; monomeric Aβ42 detected by MALDI-TOF MS
# Method: For every aggregation experiment Aβ42 solutions were prepared following the same procedure. The lyophilized peptide was taken out from the -80°C fridge, and incubated at room temperature until thawing. Cold 0.02% ammonium hydroxide was added to the peptide to get a final concentration of 10 µM. The solution was mixed on the vortex for a minute and put on ice. Before the beginning of the experiment the solution was mixed again for a shorter time. To start the experiment, the peptide stock solution was diluted in a ratio of 1:1 into the buffer, which contained various concentrations of a tested compound. All probes contained 5 µM Aβ42 in 20mM HEPES 0.1 M NaCl pH 7.5. Aβ42 solutions were always prepared shortly before the beginning of experiment.
# First, 5 µM B chain solution in 60% AcN 0.3% TFA was prepared and added to the α-cyano matrix solution to generate a 10 mg/ml α-cyano, 0.25 µM B chain solution in 60% AcN 0.3% TFA. The solution was mixed on a vortex for a minute and then incubated at room temperature for 10 minutes. Solution was mixed again, centrifuged for 3 min at 6000 rpm and the supernatant was transferred into a clean vial. Shortly before the beginning of aggregation experiments, Aβ42 solutions were prepared and transferred to sequential wells of a 96-well plate.
# Spots on MALDI plates were generated automatically by an Ettan Spotter (Amersham Biosciences, Sweden). Different spotting procedures were tested and best results were obtained using the following method: 0.5 µl sample + 1.5 µl matrix containing the internal calibrant - mixing 3 times with a volume of 1 µl.
# The spots were air-dried and spectra were collected automatically with Voyager DE™ STR BioSpectrometry™Workstation (Applied Biosystems, USA) mass spectrometer. […] The spectra were processed with Data Explorer™ Software (Version 4; Applied Biosystems, USA).
# T1 sequence (P05067 672-713 limits assumed): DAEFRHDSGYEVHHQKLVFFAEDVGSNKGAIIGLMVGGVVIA
row,Substance,inhibition of aggregation of Aβ42
1,Zn(CH3COO)2 [zinc],inhibited aggregation of Aβ42
2,copper,inhibited aggregation of Aβ42
3,hemin,inhibits aggregation of Aβ42
